Laboratory results: patent US9707267B2, “Beta-turn peptidomimetic cyclic compounds for treating dry eye” (Mimetogen Pharmaceuticals, Inc., priority 2008, dated 2017)

Experiments:
[1] = tested on: cultured rat conjunctival goblet cells; assay: Goblet cell glycoconjugate secretion, ELLA with UEA-1 (Example 2); type: cell-based; details: 2 hours; for Glycoconjugate Secretion, Mean ± sem: mean of rats; for Glycoconjugate Secretion, Mean ± SD: mean of rats/plates
Procedure: The culturing of conjunctival goblet cells from explant cultures was as previously described in Shatos, M. et al., “Isolation, Characterization, and Propagation of Rat Conjunctival Goblet Cells In Vitro,” IOVS 42:1455-1464 (2001), the entire content of which is incorporated herein by reference. The tissue was finely minced and individual pieces were anchored onto scored 6-well cultures dishes in 0.5 mL of complete RPMI-1640 (supplemented with 10% FBS, 2 mM glutamine and 100 μg/mL penicillin-streptomycin) and incubated at 37° C. in a humidified 5% CO2-atmosphere. Explant cultures were refed every 2 days. Within a few days, goblet cells migrated from the pieces and began to proliferate. After approximately one week, the tissue plugs were removed and the goblet cells were allowed to grow to confluence. Cells were passaged once by trypsinization of adherent cells with 0.05% trypsin-0.53 mM EDTA (pH 7.4), and plated in 8-well Laboratory Tek chamber slides (histochemistry) or in 96 well (proliferation), 24 well (secretion), or 6 well (western blots) culture plates with complete RPMI-1640 media.
To measure cell secretion, goblet cells were grown to confluence and then serum depleted for 2 hours prior to stimulation. Cells were incubated with compound D3 at 2, 10, and 50 μM, NGF at 0.1, 1 and 10 nM, and PMA at 0.1, 1, and 10 nM in serum-free RPMI for 2 hours. Goblet cell secretion was measured using an enzyme-linked lectin assay (ELLA). Briefly, an aliquot of the cell culture supernatant was transferred to a 96-well polystyrene microtiter plate in triplicate (Corning Life Sciences #2592, Fisher Scientific, Nepean, Ont). A dilution series of bovine submaxillary mucin (BSM) (Sigma, St. Louis, Mo.) was included on each plate as the standard (standard curve data and data showing that detection of BSM is linear between 0.003 and 0.1 μg not shown). The plates were coated by evaporation at 37° C. overnight. After, the plates were washed three times with wash buffer [PBS containing 0.3% BSA, 0.05% Tween-20] then blocked for nonspecific binding with PBS containing 3% BSA and 0.05% Tween-20 at 37° C. for 1 hour. The wells were rinsed three times in wash buffer, and then incubated in 2 μg/mL biotinylated UEA-1 diluted in wash buffer (Vector Labs, Burlingame, Calif.) at 37° C. for 1 hour. The wells were rinsed three times in wash buffer, and then incubated in 1 μg/mL HRP-conjugated neutravidin diluted in wash buffer (Pierce, Rockford, Ill.) at 37° C. for 1 hour. After the wells were rinsed three times in wash buffer, the color development was performed with TMB (Promega, Madison, Wis.) and stopped with 0.5N Sulfuric acid. The absorbance was read at 450 nm on a Benchmark Plus (Biorad). The goblet cells remaining in the culture wells were either scraped in RIPA buffer [1% TritonX-100, 20 mM Tris-HCl pH 7.5, 150 mM NaCl, 1.5 mM MgCl2, 1% Na deoxycholate, 1 mM EGTA, 1 mM EDTA, 0.1% SDS, 10% glycerol, 1 mM Na vanadate, 10 mM Na fluoride, 10 mM Na pyrophosphate, complete mini EDTA-free protease inhibitors (Roche Applied Science, Indianapolis, Ind.)] or 1M Tris-buffer (pH 7.5), collected and sonicated. The amount of protein in the cell homogenate was analyzed using the Bradford protein assay kit using a dilution series of bovine serum albumin (BSA) as the standard (BioRad, Montreal, PQ). Glycoconjugate secretion was normalized to total protein in the homogenate. Data was then expressed as fold increase above basal. […]

[2] = tested on: Scopolamine Induced Rat Dry Eye Model; assay: Scopolamine induced rat dry eye model, corneal staining (Example 5); type: in vivo; details: 0.00053% topical 1× daily Days 5-21, score 0 to 4, ± SD
Procedure: Dry eye was induced using scopolamine hydrobromide (Sigma-Aldrich, St. Louis, Mo.), which was continuously and systemically delivered to the animals via an osmotic pump (2ML4 Alzet®; CedarLane, Burlington, Ontario) filled with scopolamine and implanted subcutaneously in the mid dorsal area between the scapulae. Scopolamine was delivered for a twenty-eight day period at 12.5 mg/day, which translated to 30.0±1.5 mg/kg via osmotic pump.
Treatments for G2-G6 continued daily for seventeen days (up to an including day twenty-one). Thereafter, treatments were terminated but the study continued for another week. During treatment, each animal was anesthetized in an isoflurane chamber. Once asleep, each animal received a 5 μL topical instillation of test article into the lower conjunctival sac of both eyes using a calibrated micropipette. If a clinical endpoint was also being tested, the test article was topically instilled at the end of the testing.
Immediately following TBUT assessment, the clinical signs of corneal dryness were evaluated by fluorescein staining of the cornea and was tested on day 13 (after 8 daily treatments), day 21 (after 16 daily treatments), and day 28 (after treatment was stopped for 7 days). A drop of a 0.2% sodium fluorescein solution made up in sterile saline was instilled in the upper conjunctival sac of the anaesthetized animal. The cornea was thereafter observed under blue light using a Portable Slit Lamp ophthalmoscope with blue cobalt filter (Reichert Ophthalmic Instruments, Depew, N.Y.) two to three minutes after fluorescein instillation. For each animal, the punctate fluorescein-stained area of the cornea was recorded in a masked fashion. The score of this test was graded from 0 to 4, where 0 is equal to no staining, 1 is less than 25% surface staining, 2 is 25-50% surface staining, 3 is 50-75% surface staining, and 4 is greater than 75% surface staining.

For “NGF: nerve growth factor (recombinant human), positive control”, the “Glycoconjugate Secretion” value ([1]; 0.1 nM, Rat 1) was 1.49 Fold increase above basal, the “Glycoconjugate Secretion” value ([1]; 0.1 nM, Rat 1 Plate 1) was 7.6 μg glycoconjugate/mg total protein and the “Glycoconjugate Secretion” value ([1]; 0.1 nM, Rat 2) was 1.20 Fold increase above basal. The “Glycoconjugate Secretion” value ([1]; 0.1 nM, Rat 2 Plate 1) was 2.4 μg glycoconjugate/mg total protein, the “Glycoconjugate Secretion” value ([1]; 0.1 nM, Rat 3) was 0.94 Fold increase above basal and the “Glycoconjugate Secretion” value ([1]; 0.1 nM, Rat 3 Plate 1) was 4.6 μg glycoconjugate/mg total protein. For the same substance, the “Glycoconjugate Secretion” value ([1]; 0.1 nM, Rat 4) was 1.24 Fold increase above basal, the “Glycoconjugate Secretion” value ([1]; 0.1 nM, Rat 4 Plate 1) was 10.6 μg glycoconjugate/mg total protein and the “Glycoconjugate Secretion, Mean ± sem” value ([1]; 0.1 nM) was 1.22 ± 0.11 Fold increase above basal. The “Glycoconjugate Secretion, Mean ± SD” value ([1]; 0.1 nM) was 6.3 ± 3.6 μg glycoconjugate/mg total protein, the “Glycoconjugate Secretion” value ([1]; 1 nM, Rat 1) was 2.67 Fold increase above basal and the “Glycoconjugate Secretion” value ([1]; 1 nM, Rat 1 Plate 1) was 13.6 μg glycoconjugate/mg total protein. The “Glycoconjugate Secretion” value ([1]; 1 nM, Rat 2) was 0.85 Fold increase above basal, the “Glycoconjugate Secretion” value ([1]; 1 nM, Rat 2 Plate 1) was 1.7 μg glycoconjugate/mg total protein and the “Glycoconjugate Secretion” value ([1]; 1 nM, Rat 3) was 1.00 Fold increase above basal. The “Glycoconjugate Secretion” value ([1]; 1 nM, Rat 3 Plate 1) was 4.9 μg glycoconjugate/mg total protein, the “Glycoconjugate Secretion” value ([1]; 1 nM, Rat 4) was 1.26 Fold increase above basal and the “Glycoconjugate Secretion” value ([1]; 1 nM, Rat 4 Plate 1) was 10.8 μg glycoconjugate/mg total protein. For the same substance, the “Glycoconjugate Secretion, Mean ± sem” value ([1]; 1 nM) was 1.44 ± 0.42 Fold increase above basal, the “Glycoconjugate Secretion, Mean ± SD” value ([1]; 1 nM) was 7.8 ± 5.4 μg glycoconjugate/mg total protein and the “Glycoconjugate Secretion” value ([1]; 10 nM, Rat 1) was 1.58 Fold increase above basal. The “Glycoconjugate Secretion” value ([1]; 10 nM, Rat 1 Plate 1) was 10.4 μg glycoconjugate/mg total protein, the “Glycoconjugate Secretion” value ([1]; 10 nM, Rat 1 Plate 2) was 4.4 μg glycoconjugate/mg total protein and the “Glycoconjugate Secretion” value ([1]; 10 nM, Rat 2) was 1.49 Fold increase above basal. The “Glycoconjugate Secretion” value ([1]; 10 nM, Rat 2 Plate 1) was 3.6 μg glycoconjugate/mg total protein, the “Glycoconjugate Secretion” value ([1]; 10 nM, Rat 2 Plate 2) was 2.7 μg glycoconjugate/mg total protein and the “Glycoconjugate Secretion” value ([1]; 10 nM, Rat 3) was 1.98 Fold increase above basal. The “Glycoconjugate Secretion” value ([1]; 10 nM, Rat 3 Plate 1) was 9.7 μg glycoconjugate/mg total protein, the “Glycoconjugate Secretion” value ([1]; 10 nM, Rat 4) was 1.19 Fold increase above basal and the “Glycoconjugate Secretion” value ([1]; 10 nM, Rat 4 Plate 1) was 10.2 μg glycoconjugate/mg total protein. The “Glycoconjugate Secretion, Mean ± sem” value ([1]; 10 nM) was 1.55±0.18 Fold increase above basal, the “Glycoconjugate Secretion, Mean ± SD” value ([1]; 10 nM) was 6.8 ± 3.6 μg glycoconjugate/mg total protein and the “Corneal Staining” value ([2]; Day 13) was 2.6 ± 0.5 Score. For the same substance, the “Corneal Staining” value ([2]; Day 21) was 2.3 ± 0.6 Score and the “Corneal Staining” value ([2]; Day 28 (7 days after treatment stopped)) was 2.2 ± 0.3 Score.
